Experimental data: the NIST ThermoML archive (doi:10.1016/j.tca.2012.01.007)
± gives the expanded uncertainty stated by the source.

Test: wn = mass fraction of the nth substance listed
Conditions: 101 kPa, Liquid, Vibrating tube method

OCCNCCO [diethanolamine] + CCO
Conditions	mass density [kg/m3]
278.14 K, w1 = 0.1	827.791 ± 0.12
278.14 K, w1 = 1	1107.05 ± 0.32
278.15 K, w1 = 0.1999	854.007 ± 0.13
278.15 K, w1 = 0.3	881.862 ± 0.15
278.15 K, w1 = 0.3999	910.002 ± 0.17
278.15 K, w1 = 0.5001	939.811 ± 0.2
278.15 K, w1 = 0.5998	970.814 ± 0.19
278.15 K, w1 = 0.7002	1004.37 ± 0.19
278.15 K, w1 = 0.8001	1037.46 ± 0.21
278.15 K, w1 = 0.8417	1051.46 ± 0.23
278.15 K, w1 = 0.8997	1071.67 ± 0.26
283.14 K, w1 = 0.1	823.639 ± 0.13
283.14 K, w1 = 0.1999	849.953 ± 0.13
283.14 K, w1 = 0.3	877.917 ± 0.15
283.14 K, w1 = 1	1103.88 ± 0.31
283.15 K, w1 = 0.3999	906.254 ± 0.17
283.15 K, w1 = 0.5001	936.053 ± 0.2
283.15 K, w1 = 0.5998	967.135 ± 0.19
283.15 K, w1 = 0.7002	1000.78 ± 0.19
283.15 K, w1 = 0.8001	1034 ± 0.21
283.15 K, w1 = 0.8417	1048.09 ± 0.23
283.15 K, w1 = 0.8997	1068.38 ± 0.26
293.14 K, w1 = 0.1	815.297 ± 0.13
293.14 K, w1 = 0.1999	841.801 ± 0.14
293.14 K, w1 = 0.3	869.969 ± 0.15
293.14 K, w1 = 0.5998	959.776 ± 0.19
293.14 K, w1 = 0.8997	1061.73 ± 0.25
293.15 K, w1 = 0.3999	898.495 ± 0.17
293.15 K, w1 = 0.5001	928.504 ± 0.2
293.15 K, w1 = 0.7002	993.608 ± 0.19
293.15 K, w1 = 0.8001	1027.03 ± 0.21
293.15 K, w1 = 0.8417	1041.24 ± 0.23
293.15 K, w1 = 1	1097.51 ± 0.31
303.14 K, w1 = 0.1	806.876 ± 0.13
303.14 K, w1 = 0.3	861.949 ± 0.15
303.14 K, w1 = 1	1091.06 ± 0.3
303.15 K, w1 = 0.1999	833.564 ± 0.14
303.15 K, w1 = 0.3999	890.674 ± 0.18
303.15 K, w1 = 0.5001	920.9 ± 0.21
303.15 K, w1 = 0.5998	952.376 ± 0.2
303.15 K, w1 = 0.7002	986.404 ± 0.19
303.15 K, w1 = 0.8001	1020.01 ± 0.2
303.15 K, w1 = 0.8417	1034.3 ± 0.22
303.15 K, w1 = 0.8997	1054.97 ± 0.25
313.14 K, w1 = 0.1	798.332 ± 0.14
313.14 K, w1 = 0.3	853.824 ± 0.16
313.14 K, w1 = 1	1084.49 ± 0.3
313.15 K, w1 = 0.1999	825.235 ± 0.14
313.15 K, w1 = 0.3999	882.762 ± 0.18
313.15 K, w1 = 0.5001	913.212 ± 0.21
313.15 K, w1 = 0.5998	944.908 ± 0.2
313.15 K, w1 = 0.7002	979.15 ± 0.19
313.15 K, w1 = 0.8001	1012.95 ± 0.2
313.15 K, w1 = 0.8417	1027.32 ± 0.22
313.15 K, w1 = 0.8997	1048.11 ± 0.24
323.14 K, w1 = 0.1	789.624 ± 0.14
323.14 K, w1 = 0.1999	816.75 ± 0.14
323.14 K, w1 = 0.3	845.563 ± 0.16
323.14 K, w1 = 0.7002	971.82 ± 0.19
323.14 K, w1 = 1	1077.78 ± 0.29
323.15 K, w1 = 0.3999	874.726 ± 0.18
323.15 K, w1 = 0.5998	937.339 ± 0.2
323.15 K, w1 = 0.8001	1005.75 ± 0.2
323.15 K, w1 = 0.8417	1020.28 ± 0.21
323.15 K, w1 = 0.8997	1041.21 ± 0.24
323.16 K, w1 = 0.5001	905.4 ± 0.21
333.14 K, w1 = 0.1	780.704 ± 0.14
333.14 K, w1 = 0.1999	808.075 ± 0.15
333.14 K, w1 = 0.3	837.129 ± 0.16
333.14 K, w1 = 1	1071 ± 0.29
333.15 K, w1 = 0.3999	866.54 ± 0.18
333.15 K, w1 = 0.5001	897.474 ± 0.21
333.15 K, w1 = 0.5998	929.643 ± 0.2
333.15 K, w1 = 0.7002	964.37 ± 0.19
333.15 K, w1 = 0.8001	998.264 ± 0.19
333.15 K, w1 = 0.8417	1013.15 ± 0.21
333.15 K, w1 = 0.8997	1034.23 ± 0.23
343.14 K, w1 = 0.1	771.521 ± 0.15
343.14 K, w1 = 0.1999	799.163 ± 0.15
343.14 K, w1 = 0.3	828.477 ± 0.17
343.14 K, w1 = 0.5001	889.372 ± 0.22
343.14 K, w1 = 0.8997	1027.15 ± 0.23
343.14 K, w1 = 1	1064.14 ± 0.28
343.15 K, w1 = 0.3999	858.164 ± 0.19
343.15 K, w1 = 0.5998	921.798 ± 0.2
343.15 K, w1 = 0.7002	956.784 ± 0.2
343.15 K, w1 = 0.8001	990.826 ± 0.19
343.15 K, w1 = 0.8417	1005.84 ± 0.2
348.14 K, w1 = 0.1	766.805 ± 0.15
348.14 K, w1 = 0.1999	794.6 ± 0.15
348.14 K, w1 = 0.3	824.049 ± 0.17
348.14 K, w1 = 0.5998	917.813 ± 0.2
348.14 K, w1 = 1	1060.68 ± 0.28
348.15 K, w1 = 0.3999	853.893 ± 0.19
348.15 K, w1 = 0.5001	885.244 ± 0.22
348.15 K, w1 = 0.7002	952.934 ± 0.2
348.15 K, w1 = 0.8001	987.083 ± 0.19
348.15 K, w1 = 0.8417	1001.85 ± 0.2
348.15 K, w1 = 0.8997	1023.57 ± 0.23
